Assay results published in patent US12571801B2, “Tandem activity-based sensing and labeling strategy for reactive oxygen species imaging” (The Regents of the University of California, priority 2021, dated 2026).

Key:
zebrafish = assay: In vivo live imaging of endogenous H2O2 in zebrafish, tail fin cut model
Experimental: FIG. 6. Confocal microscopic images of zebrafish labeled with PR1-FM. Zebrafish embryos in E3 medium containing P1-FM (5 μM) were incubated overnight. The fishes were additionally incubated for 1 hour with containing DPI (100 nM) before the tail fin cut.
We sought to apply PR1-FM for in vivo live imaging to detect endogenous hydrogen peroxide production. PR1-FM was tested with live zebrafish in the regenerated fin model. The larvae at two days post-fertilization (dpf) was pre-stained with PR1-FM (5 μM) overnight before tail fin cut. […] Taken together, PR1-FM can be useful for detecting hydrogen peroxide in live zebrafish.

RAW 264.7 macrophages = assay: Imaging and flow cytometry of endogenous H2O2 in PMA-stimulated RAW264.7 macrophages; format: cell-based, mouse; conditions: for probe fluorescence in PMA-treated RAW 264.7 cells vs control: probe 10 μM, PMA 1 μg/mL 60 min, confocal microscopy and flow cytometry
Experimental: (A) Confocal microscopy (top row) and overlaid brightfield (bottom row) images of RAW264.7 macrophages stained with PG1-FM (10 μM) and then treated with PMA (1 μg/mL) or vehicle control for 60 min, washed and imaged, or first pre-treated with NADPH oxidase inhibitor DPI (5 μM) or antioxidant ebselen (5 μM) for 30 min in HBSS solution before PG1-FM staining and PMA stimulation. (B) Flow cytometry histograms and (C) quantification of mean value fluorescence intensity using PG1-FM under same conditions as (A). (D) Confocal microscopic images of RAW264.7 macrophages stained with PR1-FM (10 μM) under same conditions as (A). **P<0.01.
We next tested the ability of PG1-FM and PR1-FM to monitor H2O2 production in RAW 264.7 macrophages.
RAW264.7 cells were plated on a μ-slide 8 well (ibidi) and cultured at 37° C. overnight in a 5% CO2 incubator. The cells were pretreated with inhibitors, DPI (5 μM) or Ebselen (10 μM), for 30 min in HBSS. Afterward, the cells were co-incubated with PG1-FM (10 μM) and PMA (1 μg/mL) with or without DPI or Ebselen. The cells were observed on confocal microscope after washing with HBSS twice.
RAW264.7 cells were plated on a 6 well plate and cultured at 37° C. overnight in a 5% CO2 incubator. The cells were pretreated with inhibitors, DPI (5 μM) or Ebselen (10 μM), for 30 min in HBSS. Afterward, the cells were co-incubated with PG1-FM (5 μM) and PMA (1 μg/mL) with or without DPI or Ebselen. The cells were harvested by 0.05% Trypsin with EDTA, filtered, and analyzed with flow cytometer.

A431 cells = assay: Imaging of endogenous H2O2 in EGF-stimulated A431 cells; format: cell-based
Experimental: (A) Confocal microscopy (top row) and overlaid brightfield (bottom row) images of A431 cells stained with PG1-FM (10 μM) and then treated with EGF (1 μg/mL) or vehicle control for 30 min, washed and imaged, or first pre-treated with NADPH oxidase inhibitor DPI (5 μM) or antioxidant ebselen (5 μM) for 30 min in HBSS solution before PG1-FM staining and EGF stimulation. (B) Quantification of experiments.

[1] = Fluorescence response of probes to H2O2 in buffer; conditions: 1 μM probe, 25 μM H2O2, PBS (pH 7.4), 37° C.
Experimental: (§1) FIGS. 1A-I. Fluorescence responses and activity-based sensing and labeling properties of PG1-FM, MitoPY1-FM, and PR1-FM. (A, B, C) Activity-based sensing fluorescence responses of 1 μM PG1-FM (A), 1 μM MitoPY1-FM (B), and 1 μM PR1-FM (C) to 25 μM H2O2. Data were acquired in PBS (pH 7.4) at 37° C. (D, E, F) Fluorescence responses of 1 μM PG1-FM (D), 1 μM MitoPY1-FM (E), and 1 μM PR1-FM (F) towards biologically relevant competing reactive oxygen species and reactive nitrogen species. (G, H, I) H2O2-dependent activity-based labeling of PG1-FM (G), MitoPY1-FM (H), and PR1-FM (I) to BSA. A solution of BSA (0.5 mg/mL) and PG1-FM (1 μM), MitoPY1-FM (1 μM), and PR1-FM (1 μM) in PBS (pH 7.4) was incubated with or without H2O2(100 μM) and analyzed by SDS-PAGE gel.
(§2) We first evaluated the in vitro response of PG1-FM, MitoPY1-FM, and PR1-FM to hydrogen peroxide in aqueous solution buffered to physiological pH. […] PG1-FM converted to a fluorescent product that undergoes subsequent hydrolysis with H2O by LC analysis (FIG. 9A-B). […] To establish activity-based labeling of PG1-FM, MitoPY1-FM, and PR1-FM in a H2O2-dependent manner, we incubated the probes with bovine serum albumin (BSA) as a model protein substrate in the presence or absence of H2O2, and the reactions were analyzed by SDS-PAGE.
(§3) PG1-FM was dissolved in DMSO to obtain a 1 mM stock solution. The fluorescence spectra of PG1-FM (1 μM) were measured in PBS (−) containing 25 μM of H2O2, OCl^−, TBHP, O2^−, ONOO^−, or NO OCl^−, O2^−, ONOO^−, or NO were generated by using NaOCl (Fluka), potassium superoxide (SIGMA), Peroxynitrite (Cayman), and PROLI NONOate (Cayman), respectively. The fluorescence spectra of PG1-FM were collected an emission window between 500 nm to 650 nm with excitation at 488 nm.

[2] = molecular target: bovine serum albumin (BSA) (Bos taurus, UniProt P02769); assay: H2O2-dependent activity-based labeling of BSA, SDS-PAGE; format: biochemical; conditions: BSA 0.5 mg/mL, with or without H2O2 (100 μM)
bovine serum albumin (BSA), sequence (P02769 25-607): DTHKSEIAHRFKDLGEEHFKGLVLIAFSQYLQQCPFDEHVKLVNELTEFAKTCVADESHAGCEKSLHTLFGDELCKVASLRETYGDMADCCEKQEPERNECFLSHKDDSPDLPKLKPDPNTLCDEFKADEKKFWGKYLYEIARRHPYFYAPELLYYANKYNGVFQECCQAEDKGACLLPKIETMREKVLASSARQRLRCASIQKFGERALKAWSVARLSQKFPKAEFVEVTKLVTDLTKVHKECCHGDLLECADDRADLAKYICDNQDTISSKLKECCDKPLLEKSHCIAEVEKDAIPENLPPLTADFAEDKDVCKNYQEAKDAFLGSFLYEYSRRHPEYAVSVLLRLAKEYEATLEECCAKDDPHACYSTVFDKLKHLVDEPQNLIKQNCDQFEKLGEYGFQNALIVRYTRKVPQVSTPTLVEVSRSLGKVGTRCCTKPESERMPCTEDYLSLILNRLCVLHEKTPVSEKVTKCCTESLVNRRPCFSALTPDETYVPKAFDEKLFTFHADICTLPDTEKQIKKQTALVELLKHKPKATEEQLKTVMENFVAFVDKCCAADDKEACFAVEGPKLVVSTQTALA
Experimental: as §1, §2
PG1-FM (10 μM) and BSA (0.5 mg/mL) were incubated at 25° C. for 1 h with or without H2O2 (100 μM). Afterward, Ebselen (100 μM) was added to the mixture to quench excess of H2O2. The obtained samples were separated with Novex™ Mini Gel (Thermo). The gel was first analyzed by ChemiDoc™ MP (Bio-Rad) to take a fluorescence images, and stained with Coomassie brilliant blue (CBB) Solution

HeLa cells [3] = assay: Imaging of mitochondrial H2O2 in HeLa cells treated with Antimycin or Rotenone; format: cell-based
Experimental: FIGS. 7A-B. Confocal microscopic images of HeLa cell stained with MitoPY1-FM. (A) HeLa cell was stained with MitoPY1-FM (5 μM) for 1 h. After washing the cell with non-FBS medium, the cell was treated with Antimycin (1 μM) or Rotenone (1 μM) for 24 h. The cells were observed on confocal microscope after washing the cell. (B) Confocal microscopic images of fixed HeLa cell stained with MitoPY1-FM and Tom 20 antibody. HeLa cells were stained with MitoPY1-FM and then exposed with antimycin A. The treated cells were fixed and stained with Tom 20 antibody before the observation.
We evaluated MitoPY1-FM for imaging mitochondrial H2O2 fluxes produced by inhibition of mitochondrial electron transporter chain. HeLa cells were pre-stained with MitoPY1-FM (5 μM) and stimulated by Antimycin (1 μM) or Rotenone (1 μM) for 24 h to induce ROS and oxidative stress.

HeLa cells [4] = assay: Confocal imaging of exogenous H2O2 in live HeLa cells; format: cell-based; conditions: 5 μM probe; for probe fluorescence in HeLa cells on exogenous H2O2 treatment: H2O2 (1 mM) 60 min vs vehicle, confocal
Experimental: FIGS. 2A-C. Exogenous H2O2 detection. Confocal microscopic images of HeLa cell stained with PG1-FM, PR1-FM, and MitoPY1-FM. (A, B) HeLa cells were pe-stained with PG1-FM (5 μM) or PR1-FM (5 μM) at 37° C. in a 5% CO2 incubator. After incubating for 30 min, the cells were washed with HBSS twice, and treated with H2O2 (1 mM) for 60 min. The cells were observed on confocal microscope after washing with HBSS twice. (C) HeLa cells were pe-stained with MitoPY1-FM (5 μM) at 37° C. in a 5% CO2 incubator. After incubating for 30 min, the cells were washed with HBSS twice, and treated with H2O2 (1 mM) for 60 min. The cells were observed on confocal microscope after staining with MitoBright LT Green for 30 mi. Scale bar: 50 μm.
We next assessed the ability of PG1-FM, MitoPY1-FM, and PR1-FM for visualizing changes in H2O2 levels in live cells with exogenous H2O2 treatment. HeLa cells were pre-stained with 5 μM of PG1-FM, MitoPY1-FM, or PR1-FM, treated with H2O2 (1 mM) or vehicle control, washed, and imaged. MitoPY1-FM stained HeLa cells were co-stained with MitoBright LT Green before imaging. […] We observed that the probes load evenly throughout the cell and responds to elevations in H2O2(FIGS. 2A, 2B, and 2C).
Cells were grown at the UC Berkeley Tissue Culture Facility. HeLa, RAW264.7, and A431 cells were cultured in DMEM (high glucose) supplemented with 10% (v/v) fetal bovine serum, GlutaMAX, and NEAA. All cells were maintained in a humidified 5% CO2 incubator at 37° C.

[5] = ROS selectivity analysis (fluorescence response to competing ROS/RNS); conditions: 1 μM probe; OCl−, TBHP, O2−, ONOO−, NO; PBS
Experimental: as §1
FIG. 8. Fluorescence spectra of PG1-FM reacted with […] of OCl^−, TBHP, O2^−, ONOO^−, NO or PBS (control). PG1-FM (1 μM) was incubated with […] of H2O2, OCl^−, TBHP, O2^−, ONOO^−, or NO at 37° C. in PBS (−). The mixtures were measured by fluorometer at any incubating times (0, 5, 15, 30, 45, and 60 min).
as §3

HeLa cells [6] = assay: Imaging and flow cytometry of endogenous H2O2 in paraquat-treated HeLa cells; format: cell-based; conditions: paraquat 1 mg/mL 24 h; confocal microscopy, verified by flow cytometry
Experimental: FIGS. 3A-C. PG1-FM imaging of endogenous H2O2 generation in live HeLa cells under oxidative stress conditions stimulated by paraquat. (A) Confocal microscopy images of HeLa cells treated with or without paraquat (1 mg/mL) for 24 h, stained with PG1-FM (10 μM) for 1 h, washed twice with HBSS, and imaged. Scale bar: 50 μm. (B) Flow cytometry analysis of the cells treated with or without paraquat using PG1-FM using same conditions as (A). (C) Flow cytometric data quantified with mean value. **P<0.01.
We next utilized PG1-FM for imaging endogenous H2O2 fluxes produced by multiple types of cell models under various stimulation conditions. Our first set of experiments along these lines evaluated the performance of the probe under conditions of oxidative stress induced by paraquat treatment. HeLa cells were stimulated with or without paraquat (1 mg/mL) for 24 h to induce ROS and oxidative stress, followed by staining with PG1-FM for 30 min, washing, and imaging. […] Because the probe is cell-trappable, we verified the observed fluorescence enhancements using flow cytometry (FIG. 3B, 3C), highlighting its utility in this analytical method as well.

SMILES	effect of inhibitor on PR1-FM fluorescence in zebrafish after tail fin cut (zebrafish; DPI 100 nM, 1 hour before the tail fin cut)	effect of inhibitor on PMA-induced probe fluorescence increase in RAW 264.7 cells (RAW 264.7 macrophages; inhibitor pre-treatment 30 min in HBSS)	effect of inhibitor on H2O2-induced PG1-FM fluorescence in EGF-stimulated A431 cells (A431 cells; inhibitor 5 μM pre-treatment 30 min)	fluorescence response after treatment with H2O2 [1]	H2O2-dependent fluorescent labeling of BSA [2]	probe fluorescence in mitochondria of HeLa cells exposed to electron transport chain inhibitors vs untreated (HeLa cells [3]; MitoPY1-FM 5 μM, Antimycin (1 μM) or Rotenone (1 μM) 24 h)	localisation of probe fluorescence in fixed HeLa cells co-stained with Tom20 antibody (HeLa cells [3]; antimycin A exposed, fixed cells)	localisation by co-staining with MitoBright LT Green (HeLa cells [4]; HeLa cells, H2O2 (1 mM))	selectivity of fluorescence response for H2O2 over other ROS and RNS [5]	probe fluorescence in paraquat-exposed vs untreated HeLa cells (HeLa cells [6])	probe fluorescence in PMA-treated RAW 264.7 cells vs control (RAW 264.7 macrophages)	probe fluorescence in HeLa cells on exogenous H2O2 treatment (HeLa cells [4])	probe fluorescence in EGF-stimulated A431 cells vs control (A431 cells; PG1-FM 10 μM, EGF 1 μg/mL 30 min, confocal)	probe fluorescence in zebrafish post-cut vs pre-cut of tail fin (zebrafish; larvae 2 dpf, PR1-FM 5 μM overnight)
c1ccc2c(c1)[I+]c1ccccc1-2 [DPI, diphenyleneiodonium, reference compound]	lower level of fluorescence	fluorescence increases are blocked	inhibited H2O2-induced enhancements in PG1-FM fluorescence											
CC1(C)OB(c2ccc3c(c2CF)Oc2cc(N4CCN(C(=O)CCC[P+](c5ccccc5)(c5ccccc5)c5ccccc5)CC4)ccc2C32OC(=O)c3ccccc32)OC1(C)C.[Br-] (stereo not shown) [MitoPY1-FM, MitoPY1 Fluoromethyl]				clear fluorescence enhancement	fluorescent BSA-associated band was observed only under conditions with H2O2	patent H2O2-dependent fluorescence increases	enhanced on mitochondria	overlapped with MitoBright LT	highly selective response for H2O2					
COc1ccc2c(c1)Oc1c(ccc(B3OC(C)(C)C(C)(C)O3)c1CF)C21OC(=O)c2ccccc21 (stereo not shown) [PG1-FM, Peroxy Green-1 Fluoromethyl]				clear fluorescence enhancement	fluorescent BSA-associated band was observed only under conditions with H2O2				highly selective response for H2O2	patent H2O2-dependent fluorescence increases	higher PG1-FM and PR1-FM fluorescence relative to control cells	fluorescence increase in the whole cells	clear increase in fluorescence	
CN(C)c1ccc2c(c1)[Si](C)(C)c1c(ccc(B3OC(C)(C)C(C)(C)O3)c1CF)C21OC(=O)c2ccccc21 (stereo not shown) [PR1-FM, Peroxy Red-1 Fluoromethyl]				clear fluorescence enhancement	fluorescent BSA-associated band was observed only under conditions with H2O2				highly selective response for H2O2		higher PG1-FM and PR1-FM fluorescence relative to control cells	fluorescence increase in the whole cells		patently higher fluorescence signals in post-cut condition
